Test [1] concerns Escherichia coli. The test can be described thus: Antibacterial activity against Escherichia coli K12 carrying pR3521 encoding SCO1 by agar dilution technique. Type of test: functional. For orientation: In agar dilution, organisms are placed on agar that contains the substance at set levels.
The test system of test [2] is Escherichia coli. The test can be described thus: Antibacterial activity against Escherichia coli 3521r carrying pR352 encoding SCO1 by agar dilution technique. Type of test: functional.
The target in test [3] is T1, Beta-lactamase SCO-1 (Escherichia coli) (UniProt A1E3K9).
T1 sequence (whole entry): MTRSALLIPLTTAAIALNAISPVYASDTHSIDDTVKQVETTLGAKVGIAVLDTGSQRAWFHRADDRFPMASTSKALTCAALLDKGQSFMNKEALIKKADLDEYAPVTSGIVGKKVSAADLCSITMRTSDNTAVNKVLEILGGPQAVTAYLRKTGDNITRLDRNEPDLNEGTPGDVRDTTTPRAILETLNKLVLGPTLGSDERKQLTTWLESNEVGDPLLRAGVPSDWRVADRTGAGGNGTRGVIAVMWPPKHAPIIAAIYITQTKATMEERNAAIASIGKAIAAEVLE
The test can be described thus: Activity of Escherichia coli beta-lactamase SCO1 relative to penicillin G.

The test system of test [4] is Escherichia coli. The test can be described thus: Antibacterial activity against Escherichia coli DH5-alpha carrying pSCO1 encoding SCO1 by agar dilution technique. Type of test: functional. The settings on record: DH5alpha.
Test [5] concerns the target Beta-lactamase TEM (Escherichia coli) (UniProt P62593). Put plainly: Activity of Escherichia coli K12 beta-lactamase TEM1 relative to penicillin G.
Test [6] relates to Escherichia coli. Put plainly: Antibacterial activity against Escherichia coli DH5-alpha by agar dilution technique. Type of test: functional. The conditions noted are these: DH5alpha.
Test [7] deals with Escherichia coli. The test can be described thus: Activity of Escherichia coli K12 beta-lactamase CARB1 relative to penicillin G.
Test [8] can be described thus: Inhibition of Escherichia coli K12 CARB1.
For test [9], the target named is Beta-lactamase TEM (Escherichia coli) (UniProt P62593). The test can be described thus: Inhibition of Escherichia coli TEM1.
Beta-lactamase TEM (Escherichia coli), sequence (P62593 whole entry): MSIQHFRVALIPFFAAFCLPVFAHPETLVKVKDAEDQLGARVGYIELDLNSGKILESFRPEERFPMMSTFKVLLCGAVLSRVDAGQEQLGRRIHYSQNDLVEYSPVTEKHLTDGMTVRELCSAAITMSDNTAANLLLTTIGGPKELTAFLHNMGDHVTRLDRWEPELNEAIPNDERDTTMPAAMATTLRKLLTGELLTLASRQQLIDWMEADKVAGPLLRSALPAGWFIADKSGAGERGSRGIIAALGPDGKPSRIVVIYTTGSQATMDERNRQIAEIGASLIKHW

Each structure is given as a SMILES string. In brackets after ≈: the same amount, converted by molar mass. Bounds are passed on as bounds.

As to `CC1(C)S[C@@H]2[C@H](NC(=O)C(C(=O)O)c3ccccc3)C(=O)N2[C@H]1C(=O)O` (some centres undefined) [CARBENICILLIN], the MIC – broadly, the smallest concentration in the dilution series that meets the test's criterion for growth inhibition – in the test with Escherichia coli [1] is 64 µg/mL (≈ 169 µM); with Escherichia coli [2], 128 µg/mL (≈ 338 µM); against Escherichia coli [4], 128 µg/mL (≈ 338 µM); in the test with Escherichia coli [6] it was 1 µg/mL (≈ 2.64 µM). The values for the Activity (in [3]; in test [5]; in the test on Escherichia coli [7]) were 78, 15 and 146, respectively.

With `C[C@@H](O)[C@H]1C(=O)N2C(C(=O)O)=C(SCCNC=N)C[C@H]12` [IMIPENEM ANHYDROUS], the MIC in the test on Escherichia coli [4] and against Escherichia coli [6] was at most 0.12 µg/mL in each case.

In the case of `O=C(O)[C@H]1/C(=C/CO)O[C@@H]2CC(=O)N21` [CLAVULANIC ACID], the IC50 (in general, the concentration needed to halve the response being measured) in test [8] is 100 nM. In [9], this compound yielded an Activity of 3 µM.

`CCN1CCN(C(=O)N[C@@H](C(=O)N[C@@H]2C(=O)N3[C@@H]2SC(C)(C)[C@@H]3C(=O)O)c2ccccc2)C(=O)C1=O` [PIPERACILLIN]: the MIC amounted to 64 µg/mL (≈ 124 µM) against Escherichia coli [1], 128 µg/mL (≈ 247 µM) in the test on Escherichia coli [2], 32 µg/mL (≈ 61.8 µM) against Escherichia coli [4] and 2 µg/mL (≈ 3.86 µM) in the test on Escherichia coli [6].

Consider `CC1(C)S[C@@H]2[C@H](NC(=O)[C@H](N)c3ccc(O)cc3)C(=O)N2[C@H]1C(=O)O` [AMOXICILLIN], for which the MIC in the test on Escherichia coli [1] was at least 256 µg/mL; against Escherichia coli [2] it was at least 256 µg/mL; with Escherichia coli [4] it was at least 256 µg/mL; in the test with Escherichia coli [6] it was 4 µg/mL (≈ 10.9 µM). Moreover, the Activity in test [5] stood at 108; in the test with Escherichia coli [7], 100.

In test [3], `CC1(C)S[C@@H]2[C@H](NC(=O)[C@H](N)c3ccccc3)C(=O)N2[C@H]1C(=O)O` registered an Activity of 84.

As to `CO/N=C(\C(=O)N[C@@H]1C(=O)N2C(C(=O)O)=C(COC(C)=O)CS[C@H]12)c1csc(N)n1` [CEFOTAXIME], the MIC against Escherichia coli [1] is 4 µg/mL (≈ 8.78 µM); with Escherichia coli [2], 8 µg/mL (≈ 17.6 µM); with Escherichia coli [4] it was at most 0.12 µg/mL; in the test with Escherichia coli [6], at most 0.12 µg/mL. Also, the Activity (in test [3]; in [5]; in the test with Escherichia coli [7]) was under 1 throughout.

For the compound `CC1(C)S[C@@H]2[C@H](NC(=O)[C@H](C(=O)O)c3ccsc3)C(=O)N2[C@H]1C(=O)O` [TICARCILLIN], the MIC was at least 256 µg/mL against Escherichia coli [1], at least 256 µg/mL in the test on Escherichia coli [2], at least 256 µg/mL in the test on Escherichia coli [4] and 2 µg/mL (≈ 5.2 µM) against Escherichia coli [6].

In the case of `CC(=O)OCC1=C(C(=O)O)N2C(=O)[C@@H](NC(=O)Cc3cccs3)[C@H]2SC1` [CEPHALOTHIN], the MIC with Escherichia coli [1] is at least 256 µg/mL; with Escherichia coli [2], at least 256 µg/mL; in the test with Escherichia coli [4], 8 µg/mL (≈ 20.2 µM); with Escherichia coli [6] it was 2 µg/mL (≈ 5.04 µM). The Activity in [3] was 3; in test [5], 27; with Escherichia coli [7], 6.

In the case of `CO/N=C(\C(=O)N[C@@H]1C(=O)N2C(C(=O)[O-])=C(C[N+]3(C)CCCC3)CS[C@H]12)c1csc(N)n1`, the MIC was 0.25 µg/mL (≈ 0.52 µM) against Escherichia coli [1], at most 0.12 µg/mL against Escherichia coli [4] and at most 0.12 µg/mL in the test on Escherichia coli [6].

`CC(C)(O/N=C(\C(=O)N[C@@H]1C(=O)N2C(C(=O)[O-])=C(C[n+]3ccccc3)CS[C@H]12)c1csc(N)n1)C(=O)O` [CEFTAZIDIME]: the MIC against Escherichia coli [1] was 32 µg/mL (≈ 58.5 µM); against Escherichia coli [2], 32 µg/mL (≈ 58.5 µM); against Escherichia coli [4], at most 0.12 µg/mL; against Escherichia coli [6], at most 0.12 µg/mL. Also, the Activity (in [3]; in test [5]; in the test on Escherichia coli [7]) was under 1 throughout.

Consider `C[C@]1(Cn2ccnn2)[C@H](C(=O)O)N2C(=O)C[C@H]2S1(=O)=O` [TAZOBACTAM], for which the IC50 in [8] was 80 nM.

With `CC1(C)C(C(=O)O)N2C(=O)C[C@H]2S1(=O)=O` (single isomer, unassigned) [SULBACTAM], the concentration for half-maximal inhibition (IC50) in [8] was 5000 nM.

In the case of `O=C(Cc1cccs1)N[C@@H]1C(=O)N2C(C(=O)[O-])=C(C[n+]3ccccc3)CS[C@H]12`, the Activity in [3] turned out to be 21; in [5], 154; in the test with Escherichia coli [7], 15.

As for `CO[C@@]1(NC(=O)Cc2cccs2)C(=O)N2C(C(=O)O)=C(COC(N)=O)CS[C@@H]21` [CEFOXITIN], the MIC against Escherichia coli [1] came out at 8 µg/mL (≈ 18.7 µM); with Escherichia coli [2], 8 µg/mL (≈ 18.7 µM); against Escherichia coli [4] it was 2 µg/mL (≈ 4.68 µM); with Escherichia coli [6] it was 2 µg/mL (≈ 4.68 µM).

For the compound `C[C@H]1[C@H](NC(=O)/C(=N\OC(C)(C)C(=O)O)c2csc(N)n2)C(=O)N1S(=O)(=O)O` [AZTREONAM], the MIC against Escherichia coli [1] is 1 µg/mL (≈ 2.3 µM); against Escherichia coli [2] it was 1 µg/mL (≈ 2.3 µM); in the test on Escherichia coli [4], at most 0.12 µg/mL; in the test on Escherichia coli [6], at most 0.12 µg/mL.

In the case of `CO/N=C(\C(=O)N[C@@H]1C(=O)N2C(C(=O)O)=C(COC(N)=O)CS[C@H]12)c1ccco1` [CEFUROXIME], the MIC with Escherichia coli [1] worked out at 32 µg/mL (≈ 75.4 µM); against Escherichia coli [2] it was 32 µg/mL (≈ 75.4 µM); in the test on Escherichia coli [4], 1 µg/mL (≈ 2.36 µM); in the test on Escherichia coli [6], 1 µg/mL (≈ 2.36 µM).

Regarding `Cc1onc(-c2ccccc2)c1C(=O)N[C@@H]1C(=O)N2[C@@H]1SC(C)(C)[C@@H]2C(=O)O`, the Activity in test [3] is 4; in the test with Escherichia coli [7], 12.
